In US20230212517A1, “METHODS FOR GENERATING HEMATOPOIETIC STEM CELLS” (The Brigham and Women's Hospital, Inc., priority 2018, published 2023):
Entries after “also recorded” stand apart in the source; their conditions may differ.

Assays:
[1] = tested on: zebrafish embryos; assay: HSPC marker expression in chemically treated embryos (whole mount in situ hybridization); format: in vivo
Protocol: (§1) Zebrafish embryos were treated with the following chemical modulators in E3 fish media: 100 uM L-NAME (Fisher Scientific), 50 uM Digitoxigenin (Sigma), 25-50 uM Yoda1 (Cayman Chemical), 1 uM Nanaomycin (Nana; Fisher Scientific), 100 uM Gadolinium chloride (GdCl3; Sigma), 5-10 uM 4α-phorbol 12, 13-didecanaote (4Apdd; Sigma), or GSK205 (10 uM).
Whole mount in situ hybridizations was performed as previously described.

[2] = tested on: E11.5 AGM cells; assay: Hematopoietic colony formation unit (CFU) and FACS assays on E11.5 AGM cells; format: cell-based, mouse; details: for effect on cyclic strain-induced endothelial-to-HSC transition / hematopoietic progenitor formation: in the presence of cyclic strain (stretch)
Protocol: Pulsating blood vessels like conditions were stimulated in vitro using FLEXCELL FX-4000 cell stretching bioreactor machine. To analyze roles of pharmacological targets in regulating the endothelial-to-HSC transition, mouse embryo-derived AGM or whole mouse embryo were exposed ex vivo with biomechanical stretching, chemicals, or drugs. Next, hematopoietic colony formation assays were performed by incubating mouse AGM-derived cells in StemCell M3434 media for seven days. Serial transplantation of AGM-derived HSCs in lethally irradiated SJL mice were performed. The stem cell frequency upon biomechanical stretching was analyzed using a limiting dilution assay. To characterize properties of AGM-HSC-derived blood cells in primary transplants, percentage chimerism and reconstitution was measured using FACS, globin transcripts were analyzed using quantitative reverse transcriptase-PCR, myeloperoxidase amount was measured using PICOKINE ELISA kit, TCR-β rearrangement was analyzed using PCR for TCR-β locus, pre-immune IG detection was analyzed using Thermo-Fisher Mouse Ig Isotyping kit, and delayed-type hypersensitivity was analyzed by injecting sheep RBC (Rockland Immunochemicals) in the footpad of pre-sensitized mice.
E11.5 AGM were harvested from C57BL6/J Cd45.2 mouse embryos, and a single cell suspension of a three-embryo equivalent of cells was seeded on each well of a BioFlex six-well culture plate (FlexCell). We cultured cells overnight with the application of cyclic strain (Flexcell® FX4000™ Tension System) and/or treatment with chemical modulators (25-50 μM Yoda1, 1 μM Nanaomycin, 100 μM GdCl3, 1 uM GsMTx4, 5-20 μM 4αPDD, 10 uM GSK205). Next, harvested cells were used to perform transplant, fluorescence-activated cell sorting (FACS) analysis, and colony-forming unit (CFU) assays.
E11.5 mouse embryos were harvested from the uterus of the time-mated pregnant female, into sterile glass vials containing FBS, 1 mM glucose, 1% Penicillin-Streptomycin, and/or the selected chemical modulator (25-50 μM Yoda1, 1 μM Nanaomycin, 5-20 μM 4αPDD, or 10 uM GSK205). We placed glass vials in the ex vivo incubator (BTC Engineering, Cambridge, UK) consisting of a roller apparatus (rotating ˜30 rpm), constant gas supply (21% O2, 5% CO2, balance N2) and constant temperature at 37° C. After 24 hours, AGM were harvested to analyze the formation of hematopoietic cells by FACS and CFU assays.
For CFU assays, cells from AGM explant or ex vivo were plated in METHOCULT GF M3434 media (StemCell Technologies). Seven days after seeding, we analyzed their capacity to make granulocyte, erythroid, macrophage, megakaryocyte (GEMM), granulocyte macrophage (GM), granulocyte (G), macrophage (M), and erythroid (E) colonies.
AGM cells from explants and ex vivo were stained with Sca1-Pacific-Blue (E13-161.7, Biolegend) and Flk1-APC-Cy7 (Avas 12α1, BD). Blood from transplanted mice was stained with the following antibody cocktail: Cd45.2-Pacific-Blue (104, Biolegend), Cd45.1-FITC (A20, Biolegend), Cd3-PE (145-2C11, Biolegend), Cd8-PE (53-6.7, Biolegend), Mac1-APC (M1/70, Biolegend), Gr1-APC (108412, Biolegend), Cd19-APC-CY7 (6D5, Biolegend), B220-APC-CY7 (RA3-6B2, Biolegend).

[3] = tested on: cd41:eGFP+ HSCs emerging from flk1:mCherry+ endothelial cells; assay: Time-lapse confocal imaging of cd41:eGFP+ HSCs emerging from flk1:mCherry+ endothelial cells in transgenic embryos; format: in vivo, zebrafish
Protocol: Mice were purchased Cd45.2 (C57BL6/J) and Cd45.1 (SJL) from The Jackson Laboratory and zebrafish morpholinos from GeneTools. Microangiography was performed by injecting fluorescent-labeled dextran dye in the atrium of zebrafish heart and its passage was recorded using live imaging. Immunostaining of zebrafish heart and mouse AGM were analyzed using an inverted fluorescent microscope. Cardiac tamponade, heart rate, and pulse frequency were analyzed in zebrafish embryos using bright field imaging or time-lapse confocal microscopy. The movement of red blood cells in blood vessels was analyzed as well as the endothelial-to-HSC transition in zebrafish transgenic embryos using time-lapse confocal imaging.
as §1
cd41: eGFP were crossed with flk1:mCherry zebrafish and flk1:mCherry with lcr:eGFP zebrafish and injected morpholino in their transgenic embryos. Transgenic embryos were mounted in low-melting-point agarose and a spinning-disk confocal microscope was used to perform time-lapse confocal imaging of cd41:eGFP^+ HSCs emerging from flk1^+ endothelium from 30 to 42 hpf. The relative movement of lcr:eGFP^+ red blood cells was analyzed in the context of flk1:mCherry^+ endothelium. We performed image analysis using IMARIS (Bitplane) software.

Compound	HSPC marker expression / HSPC formation ([1]; cdh5-MO embryos)	HSPC marker expression / HSPC formation ([1]; control embryos)	effect on cyclic strain-induced endothelial-to-HSC transition / hematopoietic progenitor formation [2]	phenotype of hematopoietic cells after treatment ([2]; E11.5 AGM cells)	effect on Piezo1 activation (Yoda1)-induced endothelial-to-HSC transition ([2]; in the presence of Yoda1)	effect on Piezo1 activation (Yoda1)-mediated increase in HSC formation ([3]; embryos concurrently treated with or without Yoda1, also whole mount in situ hybridization)	specificity for Dnmt3b over Dnmt3a ([3]; transgenic embryos 26-42 hpf)
COC(=O)[C@@H](N)CCCNC(=N)N[N+](=O)[O-] [L-NAME]	produce HSCs; also recorded: does not impact HSPC formation	attenuates HSPC formation					
[Cl][Gd]([Cl])[Cl] [GdCl3, Gadolinium chloride]		attenuated HSPC expression in zebrafish embryos to the level of sih-MO embryos	attenuated				
CC1OC(CC(=O)O)CC2=C1C(=O)c1c(O)cccc1C2=O (stereo not drawn) [Nanaomycin]	attenuated HSPC marker expression	attenuated HSPC marker expression	attenuates the endothelial-to-HSC transition	reverts hematopoietic cells into phenotypic endothelial cells	attenuates the endothelial-to-HSC transition	attenuated the Piezo1 activation-mediated increase in HSC formation	specificity of Nanaomycin for Dnmt3b over Dnmt3a
GsMtX4			attenuates the inductive impact of cyclic strain on the endothelial-to-HSC transition				
